Here are results for 4 molecules from ChEMBL document CHEMBL4680222, “Sensitive fluorogenic substrates for sirtuin deacylase inhibitor discovery” (Eur J Med Chem, 2020).

For assay [1], the target named is T1, NAD-dependent protein deacetylase sirtuin-7 (Homo sapiens) (UniProt Q9NRC8).
T1 sequence (whole entry): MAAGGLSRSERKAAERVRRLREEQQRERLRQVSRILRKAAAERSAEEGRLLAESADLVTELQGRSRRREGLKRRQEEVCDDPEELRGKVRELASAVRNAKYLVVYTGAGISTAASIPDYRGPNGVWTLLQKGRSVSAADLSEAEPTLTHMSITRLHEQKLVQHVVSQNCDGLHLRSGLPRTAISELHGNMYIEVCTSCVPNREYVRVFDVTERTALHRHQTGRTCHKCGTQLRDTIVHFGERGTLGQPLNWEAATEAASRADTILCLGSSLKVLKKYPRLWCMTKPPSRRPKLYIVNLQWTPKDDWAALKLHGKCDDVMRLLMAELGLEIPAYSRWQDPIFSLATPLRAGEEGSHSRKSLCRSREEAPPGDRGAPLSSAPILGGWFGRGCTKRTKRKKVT
In words: Substrate activity at human N-terminal His-tagged SIRT7 (68 to 354 residues) expressed in Escherichia coli at 0.5 uM measured after 2 hrs in presence of NAD+ and trypsin by fluorescence assay.

Assay [2] deals with NAD-dependent protein deacylase sirtuin-6 (Homo sapiens) (UniProt Q8N6T7). In words: Substrate activity at human N-terminal His-tagged SIRT6 (1 to 355 residues) expressed in Escherichia coli at 0.5 uM measured after 2 hrs in presence of NAD+ and trypsin by fluorescence assay.
Chain of NAD-dependent protein deacylase sirtuin-6 (Homo sapiens) (Q8N6T7 whole entry, the tested form may be a part): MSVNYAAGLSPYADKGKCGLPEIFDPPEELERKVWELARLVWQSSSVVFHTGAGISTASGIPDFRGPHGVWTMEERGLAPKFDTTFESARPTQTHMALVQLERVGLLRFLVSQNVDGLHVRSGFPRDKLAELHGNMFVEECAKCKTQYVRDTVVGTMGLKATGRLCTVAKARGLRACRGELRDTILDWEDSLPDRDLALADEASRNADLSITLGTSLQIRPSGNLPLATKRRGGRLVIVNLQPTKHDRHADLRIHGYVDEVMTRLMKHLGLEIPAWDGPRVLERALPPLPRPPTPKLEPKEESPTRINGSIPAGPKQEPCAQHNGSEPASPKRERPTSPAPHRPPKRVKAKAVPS
The target of assay [3] is NAD-dependent protein deacylase sirtuin-5, mitochondrial (Homo sapiens) (UniProt Q9NXA8). Description: Substrate activity at human N-terminal His-tagged SIRT5 (34 to 302 residues) expressed in Escherichia coli at 0.5 uM measured after 2 hrs in presence of NAD+ and trypsin by fluorescence assay.
Chain of NAD-dependent protein deacylase sirtuin-5, mitochondrial (Homo sapiens) (Q9NXA8 37-310 limits assumed): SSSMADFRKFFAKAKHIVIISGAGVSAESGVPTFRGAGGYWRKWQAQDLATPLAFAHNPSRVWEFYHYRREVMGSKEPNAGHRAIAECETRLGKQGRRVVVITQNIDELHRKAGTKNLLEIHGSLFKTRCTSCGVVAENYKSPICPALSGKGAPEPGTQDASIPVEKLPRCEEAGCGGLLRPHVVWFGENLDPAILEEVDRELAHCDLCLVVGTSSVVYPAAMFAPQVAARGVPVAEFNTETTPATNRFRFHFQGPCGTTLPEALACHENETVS
Assay [4] has as its target T2, NAD-dependent protein deacetylase sirtuin-3, mitochondrial (Homo sapiens) (UniProt Q9NTG7).
T2 sequence (whole entry): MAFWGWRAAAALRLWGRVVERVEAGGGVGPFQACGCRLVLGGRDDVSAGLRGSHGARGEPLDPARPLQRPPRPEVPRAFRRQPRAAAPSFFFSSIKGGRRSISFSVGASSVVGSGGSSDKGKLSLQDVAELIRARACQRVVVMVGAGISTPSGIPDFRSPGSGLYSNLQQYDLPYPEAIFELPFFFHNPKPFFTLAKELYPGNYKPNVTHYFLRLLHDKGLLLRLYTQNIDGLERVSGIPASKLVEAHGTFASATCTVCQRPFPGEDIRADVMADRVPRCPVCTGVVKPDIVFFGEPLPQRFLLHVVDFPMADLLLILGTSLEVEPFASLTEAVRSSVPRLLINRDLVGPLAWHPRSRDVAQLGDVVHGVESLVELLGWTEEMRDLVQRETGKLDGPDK
In words: Substrate activity at human N-terminal His-tagged SIRT3 (122 to 391 residues) expressed in Escherichia coli at 0.5 uM measured after 2 hrs in presence of NAD+ and trypsin by fluorescence assay.

Assay [5] deals with T3, NAD-dependent protein deacetylase sirtuin-2 (Homo sapiens) (UniProt Q8IXJ6).
T3 sequence (whole entry): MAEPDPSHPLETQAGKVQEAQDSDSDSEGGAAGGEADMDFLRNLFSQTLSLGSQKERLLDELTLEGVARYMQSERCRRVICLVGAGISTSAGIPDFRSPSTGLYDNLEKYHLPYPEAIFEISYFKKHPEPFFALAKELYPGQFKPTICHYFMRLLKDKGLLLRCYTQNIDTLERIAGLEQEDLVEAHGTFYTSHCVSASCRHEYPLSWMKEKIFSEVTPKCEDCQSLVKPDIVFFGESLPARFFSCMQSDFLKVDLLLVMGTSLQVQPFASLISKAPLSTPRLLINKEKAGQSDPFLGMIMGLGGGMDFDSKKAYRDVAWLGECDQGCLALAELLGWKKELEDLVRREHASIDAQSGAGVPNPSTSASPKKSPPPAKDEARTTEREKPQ
Description: Substrate activity at human N-terminal His-tagged SIRT2 (56 to 356 residues) expressed in Escherichia coli at 0.5 uM measured after 2 hrs in presence of NAD+ and trypsin by fluorescence assay.

The target in assay [6] is T4, NAD-dependent protein deacetylase sirtuin-1 (Homo sapiens) (UniProt Q96EB6).
T4 sequence (whole entry): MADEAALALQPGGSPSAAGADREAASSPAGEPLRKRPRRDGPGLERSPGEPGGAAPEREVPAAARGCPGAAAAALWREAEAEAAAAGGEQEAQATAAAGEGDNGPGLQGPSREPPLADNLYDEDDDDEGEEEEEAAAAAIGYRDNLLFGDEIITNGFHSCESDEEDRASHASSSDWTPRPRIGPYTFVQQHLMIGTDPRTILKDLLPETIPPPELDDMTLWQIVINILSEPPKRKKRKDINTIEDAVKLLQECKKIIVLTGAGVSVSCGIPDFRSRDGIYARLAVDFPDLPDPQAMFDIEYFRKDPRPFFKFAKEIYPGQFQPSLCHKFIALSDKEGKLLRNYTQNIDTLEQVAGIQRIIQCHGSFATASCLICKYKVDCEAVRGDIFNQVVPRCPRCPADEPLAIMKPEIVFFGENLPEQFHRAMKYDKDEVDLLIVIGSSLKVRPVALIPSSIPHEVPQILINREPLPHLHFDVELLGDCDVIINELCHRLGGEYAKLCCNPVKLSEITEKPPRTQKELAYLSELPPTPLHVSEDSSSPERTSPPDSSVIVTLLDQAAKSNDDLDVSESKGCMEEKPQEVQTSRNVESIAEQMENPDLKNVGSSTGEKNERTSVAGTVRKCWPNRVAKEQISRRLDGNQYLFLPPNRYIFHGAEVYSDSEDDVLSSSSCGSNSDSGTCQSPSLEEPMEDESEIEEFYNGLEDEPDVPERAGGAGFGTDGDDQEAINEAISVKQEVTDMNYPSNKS
In words: Substrate activity at human N-terminal His-tagged SIRT1 (183 to 664 residues) expressed in Escherichia coli at 0.5 uM measured after 2 hrs in presence of NAD+ and trypsin by fluorescence assay.

In assay [7] the target is T1, NAD-dependent protein deacetylase sirtuin-7 (Homo sapiens). In words: Substrate activity at human N-terminal His-tagged SIRT7 (68 to 354 residues) expressed in Escherichia coli at 5 uM measured after 2 hrs in presence of NAD+ and trypsin by fluorescence assay.
The target of assay [8] is NAD-dependent protein deacylase sirtuin-6 (Homo sapiens) (UniProt Q8N6T7). Description: Substrate activity at human N-terminal His-tagged SIRT6 (1 to 355 residues) expressed in Escherichia coli at 5 uM measured after 2 hrs in presence of NAD+ and trypsin by fluorescence assay.
The target in assay [9] is NAD-dependent protein deacylase sirtuin-5, mitochondrial (Homo sapiens) (UniProt Q9NXA8). In words: Substrate activity at human N-terminal His-tagged SIRT5 (34 to 302 residues) expressed in Escherichia coli at 5 uM measured after 2 hrs in presence of NAD+ and trypsin by fluorescence assay.
The target of assay [10] is T2, NAD-dependent protein deacetylase sirtuin-3, mitochondrial (Homo sapiens). Description: Substrate activity at human N-terminal His-tagged SIRT3 (122 to 391 residues) expressed in Escherichia coli at 5 uM measured after 2 hrs in presence of NAD+ and trypsin by fluorescence assay.
The target in assay [11] is T3, NAD-dependent protein deacetylase sirtuin-2 (Homo sapiens). In words: Substrate activity at human N-terminal His-tagged SIRT2 (56 to 356 residues) expressed in Escherichia coli at 5 uM measured after 2 hrs in presence of NAD+ and trypsin by fluorescence assay.
For assay [12], the target named is T4, NAD-dependent protein deacetylase sirtuin-1 (Homo sapiens). Description: Substrate activity at human N-terminal His-tagged SIRT1 (183 to 664 residues) expressed in Escherichia coli at 5 uM measured after 2 hrs in presence of NAD+ and trypsin by fluorescence assay.
For assay [13], the target named is T1, NAD-dependent protein deacetylase sirtuin-7 (Homo sapiens). Description: Substrate activity at human N-terminal His-tagged SIRT7 (68 to 354 residues) expressed in Escherichia coli at 50 uM measured after 2 hrs in presence of NAD+ and trypsin by fluorescence assay.
Assay [14] addresses NAD-dependent protein deacylase sirtuin-6 (Homo sapiens) (UniProt Q8N6T7). Description: Substrate activity at human N-terminal His-tagged SIRT6 (1 to 355 residues) expressed in Escherichia coli at 50 uM measured after 2 hrs in presence of NAD+ and trypsin by fluorescence assay.
Assay [15] deals with NAD-dependent protein deacylase sirtuin-5, mitochondrial (Homo sapiens) (UniProt Q9NXA8). Description: Substrate activity at human N-terminal His-tagged SIRT5 (34 to 302 residues) expressed in Escherichia coli at 50 uM measured after 2 hrs in presence of NAD+ and trypsin by fluorescence assay.
Assay [16] addresses T2, NAD-dependent protein deacetylase sirtuin-3, mitochondrial (Homo sapiens). In words: Substrate activity at human N-terminal His-tagged SIRT3 (122 to 391 residues) expressed in Escherichia coli at 50 uM measured after 2 hrs in presence of NAD+ and trypsin by fluorescence assay.
The target in assay [17] is T3, NAD-dependent protein deacetylase sirtuin-2 (Homo sapiens). In words: Substrate activity at human N-terminal His-tagged SIRT2 (56 to 356 residues) expressed in Escherichia coli at 50 uM measured after 2 hrs in presence of NAD+ and trypsin by fluorescence assay.
Assay [18] addresses T4, NAD-dependent protein deacetylase sirtuin-1 (Homo sapiens). In words: Substrate activity at human N-terminal His-tagged SIRT1 (183 to 664 residues) expressed in Escherichia coli at 50 uM measured after 2 hrs in presence of NAD+ and trypsin by fluorescence assay.

Each structure is given as a SMILES string. *1 amine or outer side, *2 acyl side, *3 side chain or, on linkers, in order; H or OH if unused. Where a SMILES comes first, the peptide text is derived from it. The star is where a group is joined. AMC = Cc1cc(=O)oc2cc(N*)ccc12; Suc = O=C(CCC(=O)[*:2])[*:1]; Decanoyl = CCCCCCCCCC(=O)*

For `CC(=O)NCCCC[C@H](NC(=O)[C@H](CO)NC(=O)[C@H](Cc1ccccc1)NC(=O)[C@H](CC(=O)O)NC(C)=O)C(=O)Nc1ccc2c(C)cc(=O)oc2c1` (Ac-DFSK(Ac)-{AMC}), the Activity in assay [1] was determined as 0.39 RFU; in assay [2], 0.48 RFU; in [3], 0.26 RFU; in [4] it was 0.32 RFU; in assay [5] it was 0.31 RFU; in [6], 0.31 RFU. In addition, the Activity worked out at 0.65 RFU in [7]; 0.36 RFU in assay [8]; 0.29 RFU in assay [9]; 1.29 RFU in assay [10]; 1.13 RFU in [11]; 3.38 RFU in assay [12]. Also, the Activity is 0.58 RFU in assay [13]; 0.58 RFU in assay [14]; 0.81 RFU in assay [15]; 7.07 RFU in assay [16]; 6.75 RFU in assay [17]; 21.2 RFU in [18].

On to `CCCCCCCCCC(=O)NCCCC[C@H](NC(=O)[C@H](CCCNC(=N)N)NC(=O)[C@H](CC(C)C)NC(=O)[C@H](CC(=O)O)NC(C)=O)C(=O)Nc1ccc2c(C)cc(=O)oc2c1` (Ac-DLRK(Decanoyl)-{AMC}), for which the Activity in assay [1] was found to be 0.34 RFU; in [2], 0.51 RFU; in assay [3] it was 0.24 RFU; in assay [4] it was 0.4 RFU; in [5], 0.26 RFU; in [6], 0.26 RFU. Besides, the Activity in [7] is 0.3 RFU; in assay [8] it was 0.62 RFU; in assay [9], 0.36 RFU; in assay [10], 0.51 RFU; in [11] it was 1.03 RFU; in [12] it was 0.89 RFU. The Activity was found to be 1.5 RFU in assay [13]; 1.5 RFU in assay [14]; 1.54 RFU in assay [15]; 1.79 RFU in assay [16]; 2.6 RFU in assay [17]; 2.28 RFU in assay [18].

`CC[C@H](C)[C@H](NC(C)=O)C(=O)N[C@@H](CCCNC(=N)N)C(=O)N[C@H](C(=O)N[C@@H](CCCCNC(=O)CCC(=O)O)C(=O)Nc1ccc2c(C)cc(=O)oc2c1)[C@@H](C)CC` (Ac-IRIK(Suc)-{AMC}): the Activity in assay [1] stood at 0.29 RFU; in assay [2], 0.4 RFU; in [3], 0.32 RFU; in [4], 0.49 RFU; in [5], 0.21 RFU; in assay [6], 0.21 RFU. Further, the Activity in assay [7] worked out at 0.34 RFU; in assay [8], 0.44 RFU; in [9], 0.82 RFU; in assay [10], 0.64 RFU; in [11], 0.33 RFU; in [12], 0.55 RFU. Further, the Activity came out at 1.89 RFU in assay [13]; 1.89 RFU in assay [14]; 2.63 RFU in assay [15]; 2.47 RFU in assay [16]; 1.03 RFU in assay [17]; 2.05 RFU in assay [18].

With `CCCCCCCCCC(=O)NCCCC[C@H](NC(=O)[C@H](CCC(N)=O)NC(=O)[C@@H](NC(=O)[C@H](CCCCN)NC(C)=O)C(C)C)C(=O)Nc1ccc2c(C)cc(=O)oc2c1` (Ac-KVQK(Decanoyl)-{AMC}), the Activity amounted to 0.6 RFU in assay [1]; 0.46 RFU in assay [2]; 0.28 RFU in assay [3]; 0.51 RFU in assay [4]; 1.68 RFU in assay [5]; 1.68 RFU in [6]. Besides, the Activity in [7] was 0.44 RFU; in assay [8], 0.74 RFU; in [9], 0.24 RFU; in [10], 0.73 RFU; in [11], 1.72 RFU; in [12] it was 0.74 RFU. Moreover, the Activity in assay [13] stood at 1.09 RFU; in [14] it was 1.09 RFU; in assay [15], 0.78 RFU; in assay [16], 0.85 RFU; in assay [17], 3.19 RFU; in [18], 1.1 RFU.
